Values quoted from earlier work, collected in US20260232695A1, “ORAL FORMULATIONS OF ABIRATERONE ACETATE AND METHOD OF MANUFACTURING THEREOF” (BDR PHARMACEUTICALS INTERNATIONAL PRIVATE LIMITED, priority 2022, published 2026).

Conditions: poor solubility in water and lower lipid permeability

BCS class: Class IV
SMILES: CC(=O)O[C@H]1CC[C@@]2(C)C(=CC[C@@H]3[C@@H]2CC[C@]2(C)C(c4cccnc4)=CC[C@@H]32)C1 [Abiraterone Acetate, 17-(pyridin-3-yl)androsta-5,16-dien-3β-yl acetate]
